Experimental data reported in PMC12188386, “Selective CBP/EP300 Bromodomain Inhibitors: Novel Epigenetic Tools to Counter TNF-α-Driven Inflammation” (JACS Au, 2025).

Experiments:
[1] = target: T1, CBP-BRD (ePL-CBP-BRD in HEK293T cells) (Homo sapiens, UniProt Q92793); test: CBP-BRD InCELL Pulse cellular target engagement; type: cell-based; details: 1 h compound treatment of HEK293T cells transiently transfected with ePL-CBP-BRD
T1 construct: (residues 1083-1197) was cloned into the pICP-ePL-C vector; expressed in transfected cells; host or cells: HEK293T, transient transfection (vector pICP-ePL-C, DiscoverX 94-4007S)
Method: The CBP-BRD (residues 1083-1197) was cloned into the pICP-ePL-C vector (DiscoverX, 94-4007S) between the EcoRI and XhoI restriction sites using the hexahistidine-CREBBP plasmid as a template. 5x10^5 HEK293T cells were plated on a 6 well plate the day prior to transfection with 1.5 μg ePL-CBP-BRD plasmid using 5 μl FugeneHD (Promega E2311) in 500 μl optiMEM® (Gibco, 31985062) . Proteins were allowed to express for 20 h before cells were trypsinized, washed and resuspended in low -serum medium (DMEM with 5 % FBS). Compounds were serially diluted in DMSO at 100x, pre-diluted to 5x in complete medium (DMEM with 10 % FBS and 1 % P/S), then added to a suspension of 5x10^3 cells, giving a final DMSO concentration of 1 %. Treated cells were incubated for 1 h at 37 °C in an incubator, followed by a heat shock for 3 min at 45 °C and recovery for 3 min at 22 °C using a thermocycler with a ramp rate of 1 °C/s (SimpliAmp, Thermo Fisher). Stab ilized ePL tag was quantified using the InCELL detecti n Kit isc verX as per the manufacturer’s pr t c usin the -10 working detection solution and a 2 h incubation before reading luminescence with a SpectraMax M5 plate reader (Molecular devices). […]

[2] = bidirectional Caco-2 permeability assay; type: in vitro ADME; details: human; for Papp A→B at 120 min / Papp B→A at 120 min / efflux ratio at 120 min: Caco-2; for Papp A→B at 120 min: Direction: A-B (apical-to-basolateral); for Papp A→B at 120 min / Papp B→A at 120 min: n=2; for Papp B→A at 120 min: Direction: B-A (basolateral-to-apical); for efflux ratio at 120 min: from mean A-B and B-A data, read-out: Efflux Ratio (Papp(B-A)/Papp(A-B))
Method: (§1) Bidirectional Caco-2 Permeability Assay (provided by Cyprotex Discovery Ltd; Cheshire, UK)19 Following a standard Cyprotex procedure, Caco-2 cells (ATCC), used at passages 40–60, were seeded nt ranswe inserts at a densit f × ⁵ ce s/cm² and maintained in with media changes carried out every 2–3 days. Permeability assays were performed between days 18–22 post-seedin . pr cedures were c nducted at ° in a humidified incu at r with O₂. On the day of the assay, monolayers were prepared by rinsing both the apical and basolateral compartments with pre-warmed anks’ a anced a t uti n at the desired pH and incubated with HBSS on both sides for 30 minutes to equilibrate the compartments. The dosing solutions were obtained by diluting the test compounds in assay uffer t a c ncentrati n f with a fina O c ncentrati n f ≤ v/v and Lucifer yellow was included as a fluorescent marker to assess monolayer integrity. Analytical standards were prepared similarly, omitting the Lucifer yellow . For apical-to-basolateral (A– B) measurements, the dosing solution was applied to the apical chamber and buffer to the basolateral side, while the configuration was reversed for basolateral-to-apical (B–A) measurements. After a 120 min incubation, samples from both compartments were collected and diluted for quantification. Permeability was assessed in duplicates, and reference […]
(§2) compounds with known characteristics were included as controls. Quantification of test and control compounds was performed by LC-MS/MS using an 8-point calibration curve under Cyprotex standard analytical conditions. The initial concentration (C0) at time zero was determined from the dosing solution, and recovery was calculated based on concentrations […]
(§3) The apparent permeability coefficient (Papp) is calculated from the equation (where dQ/dt is the drug permeation rate across the cells, C0 is the concentration in the donor compartment at time zero, and A is the area of the cell monolayer):
(§4) Efflux ratio (ER) is calculated from mean A-B and B-A data: […]
(§5) Cells were fixed in situ with cold TCA: untreated cells at the time of compound addition (Tz) and treated cells 48 h after addition of compound (Ti). Cells were washed, then su f rh damine s uti n μ at . w/v in acetic acid was added to each well and incubated for 10 minutes at room temperature. After washing again, the plates were air dried and bound stain solubilized with 10 mM Trizma base before absorbance was […]
(§6) Percentage growth (%Growth) was calculated as follows:
(§7) when Ti ≥ Tz, %Growth = Ti − Tz x 100 where Ti = absorbance from compound treated cells, Tz = absorbance from untreated cells at time zero, and C = absorbance from control (DMSO) treated cells.
(§8) HEK293T, MRC5 and LP1 cells were cultured in DMEM (Gibco 41966 -029) containing 10 % or 15 % (LP1) FBS (Gibco 10270106 or Sigma F9665), 1 % non-essential amino acids (MRC5 only, […]
(§9) cultured in RPMI 1640 (Gibco 21875-034) containing 10 % FBS and 1 % P/S. All cells were grown in a humidified incubator with 5 % CO 2 at 37 °C.

Caco-2 cells = test: bidirectional Caco-2 permeability assay; type: in vitro ADME; details: for Papp Replicate 1 / Papp Replicate 2: 120 min; for membrane permeability (Caco-2), in words: bidirectional Caco-2 assay
Method: as §1, §2, §3, §4, §5, §6, §7, §8, §9

[3] = Caco-2, Direction: A-B (apical-to-basolateral)
[4] = Caco-2, Direction: B-A (basolateral-to-apical)
[5] = Direction: A-B (apical-to-basolateral)
[6] = Direction: B-A (basolateral-to-apical)

T1 sequence (Q92793 1083-1197): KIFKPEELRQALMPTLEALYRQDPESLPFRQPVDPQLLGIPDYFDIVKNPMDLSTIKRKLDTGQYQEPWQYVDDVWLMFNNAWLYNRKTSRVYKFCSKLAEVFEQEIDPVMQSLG

Compound	cellular binding to CBP-BRD (InCELL Pulse) [1]	recovery at 120 min [2, 3] [%]	recovery at 120 min [2, 4] [%]	Papp A→B at 120 min [2] [×10⁻⁶ cm/s]	Papp B→A at 120 min [2] [×10⁻⁶ cm/s]	efflux ratio at 120 min [2]	Papp Replicate 1 (Caco-2 cells; [5])	Papp Replicate 2 (Caco-2 cells; [5])	Papp Replicate 1 (Caco-2 cells; [6])	Papp Replicate 2 (Caco-2 cells; [6])	membrane permeability (Caco-2), in words (Caco-2 cells)
CC(=O)Nc1cc(NC(=O)c2ccco2)cc(C(=O)Nc2cccc3nnc(C)cc23)c1 [Compound 1]	no ligand engagement in cellulo	80	87.3	0.0375	11.5	307	0.0348 10-6 cms-1	0.0401 10-6 cms-1	11.6 10-6 cms-1	11.5 10-6 cms-1	very low membrane permeability
Cc1cc2c(NC(=O)c3cc(NC(=O)c4ccco4)cc(-c4ccn(C)n4)c3)cccc2nn1 [Compound 2]	significant improvement in terms of cellular target engagement	47	61.8	0.549	29	52.9	0.565 10-6 cms-1	0.533 10-6 cms-1	28.9 10-6 cms-1	29.2 10-6 cms-1	improved cellular permeability
Cc1cc2c(NC(=O)c3cc(NC(=O)[C@H]4CCCO4)cc(-c4ccn(C)n4)c3)cccc2nn1 [Compound 5]	able to engage the target very similarly	68.2	78	0.623	32.5	52.2	0.57 10-6 cms-1	0.677 10-6 cms-1	34.2 10-6 cms-1	30.9 10-6 cms-1	improved cellular permeability
